{"source": "patent US10399987B2", "about": "“TGF beta receptor antagonists” (BRISTOL-MYERS SQUIBB COMPANY, priority 2015, dated 2019)", "data": [{"molecular_target": "HIS-TGFβR1 T204D (Homo sapiens (Human), UniProt P36897, T204D)", "sequence (P36897 34-503 T204D)": "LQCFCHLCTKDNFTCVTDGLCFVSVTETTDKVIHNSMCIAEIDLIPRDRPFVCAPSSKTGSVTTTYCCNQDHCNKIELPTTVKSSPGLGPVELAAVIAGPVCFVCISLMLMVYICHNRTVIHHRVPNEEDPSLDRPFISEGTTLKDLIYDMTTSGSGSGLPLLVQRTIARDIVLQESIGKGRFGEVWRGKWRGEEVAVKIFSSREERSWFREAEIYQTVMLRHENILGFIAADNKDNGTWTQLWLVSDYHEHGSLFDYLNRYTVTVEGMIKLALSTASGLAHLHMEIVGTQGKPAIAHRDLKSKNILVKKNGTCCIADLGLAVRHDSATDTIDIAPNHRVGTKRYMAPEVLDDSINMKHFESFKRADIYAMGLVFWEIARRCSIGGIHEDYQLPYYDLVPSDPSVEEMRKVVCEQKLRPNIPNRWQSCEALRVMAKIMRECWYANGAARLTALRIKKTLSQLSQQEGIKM", "assay": "TGFβR1 HIS T204D HTRF assay (labeled small molecule probe, anti-HIS detection antibody)", "format": "binding", "conditions": "1 nM HIS-TGFβR1 T204D, probe at Kd, 1 hour at room temperature, eleven concentrations", "units": {"IC50": "nM"}, "values": [{"molecule": "Fc1cnccc1Nc1nc(-c2cccc(C(F)F)n2)nc2[nH]ccc12", "note": "[Example 2, 2-(6-(difluoromethyl)pyridin-2-yl)-N-(3-fluoropyridin-4-yl)-7H-pyrrolo[2,3-d]pyrimidin-4-amine]", "IC50": 0.25}, {"molecule": "CC(=O)Nc1cc(Nc2nc(-c3cccc(C(F)F)n3)nc3[nH]ccc23)ccn1", "note": "[Example 3, N-(4-((2-(6-(difluoromethyl)pyridin-2-yl)-7H-pyrrolo[2,3-d]pyrimidin-4-yl)amino)pyridin-2-yl)acetamide]", "IC50": 0.78}, {"molecule": "O=C(CN1CCCC1)Nc1cc(Nc2nc(-c3cccc(C(F)(F)F)n3)nc3[nH]ccc23)ccn1", "note": "[Example 4, 2-(pyrrolidin-1-yl)-N-(4-((2-(6-(trifluoromethyl)pyridin-2-yl)-7H-pyrrolo[2,3-d]pyrimidin-4-yl)amino)pyridin-2-yl)acetamide]", "IC50": 0.42}, {"molecule": "CN1CCN(CC(=O)Nc2cc(Nc3nc(-c4cccc(C(F)(F)F)n4)nc4[nH]ccc34)ccn2)CC1", "note": "[Example 5, 2-(4-methylpiperazin-1-yl)-N-(4-((2-(6-(trifluoromethyl)pyridin-2-yl)-7H-pyrrolo[2,3-d]pyrimidin-4-yl)amino)pyridin-2-yl)acetamide]", "IC50": 0.53}, {"molecule": "Cc1c[nH]c2nc(-c3cccc(C(F)F)n3)nc(Nc3ccncc3F)c12", "note": "[Example 6, 2-(6-(difluoromethyl)pyridin-2-yl)-N-(3-fluoropyridin-4-yl)-5-methyl-7H-pyrrolo[2,3-d]pyrimidin-4-amine]", "IC50": 0.76}, {"molecule": "CN1CCN(Cc2c[nH]c3nc(-c4cccc(C(F)F)n4)nc(Nc4ccncc4F)c23)CC1", "note": "[Example 7, 2-(6-(difluoromethyl)pyridin-2-yl)-N-(3-fluoropyridin-4-yl)-5-((4-methylpiperazin-1-yl)methyl)-7H-pyrrolo[2,3-d]pyrimidin-4-amine]", "IC50": 3.7}, {"molecule": "Fc1cnccc1Nc1nc(-c2ccccn2)nc2[nH]ccc12", "note": "[Example 8, N-(3-fluoropyridin-4-yl)-2-(pyridin-2-yl)-7H-pyrrolo[2,3-d]pyrimidin-4-amine]", "IC50": 0.26}, {"molecule": "c1ccc(-c2nc(-n3ccc4cnccc43)c3cc[nH]c3n2)nc1", "note": "[Example 9, 2-(pyridin-2-yl)-4-(1H-pyrrolo[3,2-c]pyridin-1-yl)-7H-pyrrolo[2,3-d]pyrimidine]", "IC50": 1.2}, {"molecule": "Cc1nc(-c2nc(Nc3ccncc3F)c3cc[nH]c3n2)ccc1F", "note": "[Example 11, 2-(5-fluoro-6-methylpyridin-2-yl)-N-(3-fluoropyridin-4-yl)-7H-pyrrolo[2,3-d]pyrimidin-4-amine]", "IC50": 0.6}, {"molecule": "FC(F)c1cccc(-c2nc(-n3ccc4cnccc43)c3cc[nH]c3n2)n1", "note": "[Example 12, 2-(6-(difluoromethyl)pyridin-2-yl)-4-(1H-pyrrolo[3,2-c]pyridin-1-yl)-7H-pyrrolo[2,3-d]pyrimidine]", "IC50": 0.64}, {"molecule": "Cc1nc(-c2nc(Nc3cc(Cl)ncc3F)c3cc[nH]c3n2)ccc1F", "note": "[Example 13, N-(2-chloro-5-fluoropyridin-4-yl)-2-(5-fluoro-6-methylpyridin-2-yl)-7H-pyrrolo[2,3-d]pyrimidin-4-amine]", "IC50": 4}, {"molecule": "Fc1ccc(-c2nc(Nc3ccncc3F)c3cc[nH]c3n2)nc1", "note": "[Example 14, 2-(5-fluoropyridin-2-yl)-N-(3-fluoropyridin-4-yl)-7H-pyrrolo[2,3-d]pyrimidin-4-amine]", "IC50": 0.91}, {"molecule": "FC(F)c1cccc(-c2nc(Nc3ccnc(Cl)n3)c3cc[nH]c3n2)n1", "note": "[Example 15, N-(2-chloropyrimidin-4-yl)-2-(6-(difluoromethyl)pyridin-2-yl)-7H-pyrrolo[2,3-d]pyrimidin-4-amine]", "IC50": 160}, {"molecule": "CC(=O)Nc1cc(Nc2nc(-c3cccc(C(F)F)n3)nc3[nH]ccc23)c(F)cn1", "note": "[Example 16, N-(4-((2-(6-(difluoromethyl)pyridin-2-yl)-7H-pyrrolo[2,3-d]pyrimidin-4-yl)amino)-5-fluoropyridin-2-yl)acetamide]", "IC50": 0.71}, {"molecule": "COC(=O)Nc1cc(Nc2nc(-c3cccc(C(F)F)n3)nc3[nH]ccc23)ccn1", "note": "[Example 17, methyl (4-((2-(6-(difluoromethyl)pyridin-2-yl)-7H-pyrrolo[2,3-d]pyrimidin-4-yl)amino)pyridin-2-yl)carbamate]", "IC50": 0.76}, {"molecule": "CC(=O)Nc1cc(Nc2nc(-c3ccc(F)c(C)n3)nc3[nH]ccc23)c(F)cn1", "note": "[Example 18, N-(5-fluoro-4-((2-(5-fluoro-6-methylpyridin-2-yl)-7H-pyrrolo[2,3-d]pyrimidin-4-yl)amino)pyridin-2-yl)acetamide]", "IC50": 1.3}, {"molecule": "O=C1CCCN1c1cc(Nc2nc(-c3cccc(C(F)F)n3)nc3[nH]ccc23)ccn1", "note": "[Example 19, 1-(4-((2-(6-(difluoromethyl)pyridin-2-yl)-7H-pyrrolo[2,3-d]pyrimidin-4-yl)amino)pyridin-2-yl)pyrrolidin-2-one]", "IC50": 5.8}, {"molecule": "CC(=O)Nc1cc(Nc2nc(-c3ccccn3)nc3[nH]ccc23)ccn1", "note": "[Example 21, N-(4-((2-(pyridin-2-yl)-7H-pyrrolo[2,3-d]pyrimidin-4-yl)amino)pyridin-2-yl)acetamide]", "IC50": 0.9}, {"molecule": "CC(=O)Nc1cc(Nc2nc(-c3cccc(C)n3)nc3[nH]ccc23)ccn1", "note": "[Example 22, N-(4-((2-(6-methylpyridin-2-yl)-7H-pyrrolo[2,3-d]pyrimidin-4-yl)amino)pyridin-2-yl)acetamide]", "IC50": 1}, {"molecule": "CC(=O)Nc1cc(Nc2nc(-c3ccc(C(F)(F)F)cn3)nc3[nH]ccc23)ccn1", "note": "[Example 23, N-(4-((2-(5-(trifluoromethyl)pyridin-2-yl)-7H-pyrrolo[2,3-d]pyrimidin-4-yl)amino)pyridin-2-yl)acetamide]", "IC50": 4.7}, {"molecule": "CCC(=O)Nc1cc(Nc2nc(-c3cccc(C(F)(F)F)n3)nc3[nH]ccc23)ccn1", "note": "[Example 24, N-(4-((2-(6-(trifluoromethyl)pyridin-2-yl)-7H-pyrrolo[2,3-d]pyrimidin-4-yl)amino)pyridin-2-yl)propionamide]", "IC50": 0.74}, {"molecule": "CC(=O)Nc1cc(Nc2nc(-c3cccc(C(F)F)n3)nc3[nH]cc(C)c23)ccn1", "note": "[Example 25, N-(4-((2-(6-(difluoromethyl)pyridin-2-yl)-5-methyl-7H-pyrrolo[2,3-d]pyrimidin-4-yl)amino)pyridin-2-yl)acetamide]", "IC50": 1.5}, {"molecule": "CC(C)(C)CC(=O)Nc1cc(Nc2nc(-c3cccc(C(F)(F)F)n3)nc3[nH]ccc23)ccn1", "note": "[Example 26, 3,3-dimethyl-N-(4-((2-(6-(trifluoromethyl)pyridin-2-yl)-7H-pyrrolo[2,3-d]pyrimidin-4-yl)amino)pyridin-2-yl)butanamide]", "IC50": 2.7}, {"molecule": "CC(C)CC(=O)Nc1cc(Nc2nc(-c3cccc(C(F)(F)F)n3)nc3[nH]ccc23)ccn1", "note": "[Example 27, 3-methyl-N-(4-((2-(6-(trifluoromethyl)pyridin-2-yl)-7H-pyrrolo[2,3-d]pyrimidin-4-yl)amino)pyridin-2-yl)butanamide]", "IC50": 0.85}, {"molecule": "CS(=O)(=O)Nc1cc(Nc2nc(-c3cccc(C(F)(F)F)n3)nc3[nH]ccc23)ccn1", "note": "[Example 28, N-(4-((2-(6-(trifluoromethyl)pyridin-2-yl)-7H-pyrrolo[2,3-d]pyrimidin-4-yl)amino)pyridin-2-yl)methanesulfonamide]", "IC50": 970}, {"molecule": "CC(=O)Nc1cc(Nc2nc(-c3ccc(F)c(C)n3)nc3[nH]ccc23)ccn1", "note": "[Example 29, N-(4-((2-(5-fluoro-6-methylpyridin-2-yl)-7H-pyrrolo[2,3-d]pyrimidin-4-yl)amino)pyridin-2-yl)acetamide]", "IC50": 0.77}, {"molecule": "COC(=O)Nc1cc(Nc2nc(-c3cccc(C(F)(F)F)n3)nc3[nH]ccc23)ccn1", "note": "[Example 30, methyl (4-((2-(6-(trifluoromethyl)pyridin-2-yl)-7H-pyrrolo[2,3-d]pyrimidin-4-yl)amino)pyridin-2-yl)carbamate]", "IC50": 2.5}, {"molecule": "CC(=O)Nc1nccc(Nc2nc(-c3cccc(C(F)F)n3)nc3[nH]ccc23)c1F", "note": "[Example 31, N-(4-((2-(6-(difluoromethyl)pyridin-2-yl)-7H-pyrrolo[2,3-d]pyrimidin-4-yl)amino)-3-fluoropyridin-2-yl)acetamide]", "IC50": 0.37}, {"molecule": "O=C(CN1CCOCC1)Nc1cc(Nc2nc(-c3cccc(C(F)(F)F)n3)nc3[nH]ccc23)ccn1", "note": "[Example 32, 2-morpholino-N-(4-((2-(6-(trifluoromethyl)pyridin-2-yl)-7H-pyrrol[2,3-d]pyrimidin-4-yl)amino)pyridin-2-yl)acetamide]", "IC50": 0.77}, {"molecule": "Cc1cccc(-c2nc(Nc3ccncc3F)c3c(C)c[nH]c3n2)n1", "note": "[Example 33, N-(3-fluoropyridin-4-yl)-5-methyl-2-(6-methylpyridin-2-yl)-7H-pyrrolo[2,3-d]pyrimidin-4-amine]", "IC50": 0.25}, {"molecule": "Cc1c[nH]c2nc(-c3cccc(C(F)(F)F)n3)nc(Nc3ccncc3F)c12", "note": "[Example 34, N-(3-fluoropyridin-4-yl)-5-methyl-2-(6-(trifluoromethyl)pyridin-2-yl)-7H-pyrrolo[2,3-d]pyrimidin-4-amine]", "IC50": 4.5}, {"molecule": "CC(C)(O)CNCc1c[nH]c2nc(-c3cccc(C(F)F)n3)nc(Nc3ccncc3F)c12", "note": "[Example 35, 1-(((2-(6-(difluoromethyl)pyridin-2-yl)-4-((3-fluoropyridin-4-yl)amino)-7H-pyrrolo[2,3-d]pyrimidin-5-yl)methyl)amino)-2-methylpropan-2-ol]", "IC50": 1.4}, {"molecule": "CC(=O)Nc1nccc(Nc2nc(-c3cccc(C(F)(F)F)n3)nc3[nH]ccc23)c1F", "note": "[Example 36, N-[3-fluoro-4-({2-[6-(trifluoromethyl)pyridin-2-yl]-7H-pyrrolo[2,3-d]pyrimidin-4-yl}amino)pyridin-2-yl]acetamide]", "IC50": 1.7}, {"molecule": "Cc1cnccc1Nc1nc(-c2cccc(C(F)(F)F)n2)nc2[nH]ccc12", "note": "[Example 37, 3-methyl-N-{2-[6-(trifluoromethyl)pyridin-2-yl]-7H-pyrrolo[2,3-d]pyrimidin-4-yl}pyridin-4-amine]", "IC50": 0.87}, {"molecule": "CN(c1ccncc1)c1nc(-c2cccc(C(F)(F)F)n2)nc2[nH]ccc12", "note": "[Example 38, N-methyl-N-{2-[6-(trifluoromethyl)pyridin-2-yl]-7H-pyrrolo[2,3-d]pyrimidin-4-yl}pyridin-4-amine]", "IC50": 0.59}, {"molecule": "FC(F)(F)c1cccc(-c2nc(Nc3ccncc3C(F)(F)F)c3cc[nH]c3n2)n1", "note": "[Example 39, 3-(trifluoromethyl)-N-{2-[6-(trifluoromethyl)pyridin-2-yl]-7H-pyrrolo[2,3-d]pyrimidin-4-yl}pyridin-4-amine]", "IC50": 0.64}]}]}
